Results reported in the supplement of paper PMC10307832.

Assays:
Assay in all cases: relative viability (nuclei count vs DMSO), 5 days (fraction); higher = more cells survive
[1] = compound: C1COCCN1C2=NC(=NC3=C2OC4=C3C=CC=N4)C5=CC(=CC=C5)NC(=O)C6=CN=C(C=C6)N + COc1cccc2cc(-c3nc([C@H]4CC[C@H](C(=O)O)CC4)n4ncnc(N)c34)[nH]c12 [OSI-027] (partner 0.5 µM)
Method in brief: (§1)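 After 5 days of treatment, lung cancer cells in 1536-well plates were fixed and stained in a single step (final 0.05% Triton X-100, 1% formaldehyde, 1 ug/ml Hoechst) and their nuclei counted on 4× images. Treatment had been applied by pin tool the day after seeding as one drug alone or as a fixed anchor-drug dose with five library-drug doses (not always all listed) in √10 steps. Relative viability is the nuclei count of treated wells divided by that of vehicle wells, and values are medians of duplicate plates.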

[2] = compound: C1COCCN1C2=NC(=NC3=C2OC4=C3C=CC=N4)C5=CC(=CC=C5)NC(=O)C6=CN=C(C=C6)N + Nc1ncn([C@H]2C[C@H](O)[C@@H](CO)O2)c(=O)n1 [Decitabine] (partner 2 µM)
Method in brief: as §1

SGI-1776 + Navitoclax = compound: CN1CCC(CNc2ccc3ncc(-c4cccc(OC(F)(F)F)c4)n3n2)CC1 [SGI-1776] + CC1(C)CCC(c2ccc(Cl)cc2)=C(CN2CCN(c3ccc(C(=O)NS(=O)(=O)c4ccc(N[C@H](CCN5CCOCC5)CSc5ccccc5)c(S(=O)(=O)C(F)(F)F)c4)cc3)CC2)C1 [Navitoclax] (partner 0.5 µM)
Method in brief: as §1

SGI-1776 + AZD7762 = compound: CN1CCC(CNc2ccc3ncc(-c4cccc(OC(F)(F)F)c4)n3n2)CC1 [SGI-1776] + NC(=O)Nc1cc(-c2cccc(F)c2)sc1C(=O)N[C@H]1CCCNC1 [AZD7762] (partner 0.2 µM)
Method in brief: as §1

| Cell Line | relative viability ([1]; first compound 0.02 µM) | relative viability ([1]; first compound 0.06325 µM) | relative viability ([1]; first compound 0.2 µM) | relative viability ([1]; first compound 0.6325 µM) | relative viability ([1]; first compound 2 µM) | relative viability ([2]; first compound 0.02 µM) | relative viability ([2]; first compound 0.06325 µM) | relative viability ([2]; first compound 0.2 µM) | relative viability ([2]; first compound 0.6325 µM) | relative viability ([2]; first compound 2 µM) | relative viability (SGI-1776 + Navitoclax; first compound 0.08 µM) | relative viability (SGI-1776 + Navitoclax; first compound 0.8 µM) | relative viability (SGI-1776 + Navitoclax; first compound 2.53 µM) | relative viability (SGI-1776 + Navitoclax; first compound 8 µM) | relative viability (SGI-1776 + AZD7762; first compound 0.08 µM) | relative viability (SGI-1776 + AZD7762; first compound 0.8 µM) | relative viability (SGI-1776 + AZD7762; first compound 2.53 µM) | relative viability (SGI-1776 + AZD7762; first compound 8 µM) |
| --- | --- | --- | --- | --- | --- | --- | --- | --- | --- | --- | --- | --- | --- | --- | --- | --- | --- | --- |
| HCC-827 | 0.769 | 0.851 | 0.72 | 0.684 | 0.487 | 0.343 | 0.298 | 0.348 | 0.287 | 0.302 | 1.05 | 1.01 | 1.08 | 0.99 | 0.25 | 0.26 | 0.241 | 0.146 |
| PC-14 | 0.976 | 1.2 | 0.977 | 0.554 | 0.233 | 0.182 | 0.26 | 0.226 | 0.295 | 0.173 | 0.97 | 1.05 | 1.04 | 0.93 | 0.474 | 0.352 | 0.27 | 0.146 |
| NCI-H23 | 0.605 | – | 0.435 | 0.351 | 0.398 | 0.285 | 0.371 | 0.288 | 0.378 | 0.277 | 0.988 | 0.728 | 0.837 | 0.729 | 0.252 | 0.278 | 0.281 | 0.235 |
| NCI-H727 | 0.542 | 0.517 | 0.624 | 0.588 | 0.541 | 0.884 | 0.851 | 0.785 | 1 | 0.862 | 0.426 | 0.446 | 0.346 | 0.247 | 0.696 | 0.739 | 0.807 | 0.583 |
| HCC-366 | 0.82 | 1.04 | 0.68 | 0.537 | 0.352 | 0.296 | 0.395 | 0.343 | 0.373 | 0.223 | 1.06 | 0.964 | 1.2 | 1.09 | 0.248 | 0.263 | 0.298 | 0.26 |
| HCC-44 | 0.458 | 0.567 | 0.39 | 0.391 | 0.419 | 0.892 | 0.93 | 1.01 | 0.929 | 0.989 | 0.935 | 0.909 | 1.08 | 0.928 | 1.07 | 0.969 | 1 | 0.95 |
| A-427 | 0.407 | 0.416 | 0.469 | 0.399 | 0.394 | 0.588 | 0.512 | 0.619 | 0.679 | 0.579 | 1.03 | 0.957 | 0.953 | 1.03 | 0.685 | 0.681 | 0.686 | 0.627 |
| NCI-H441 | 0.588 | 0.511 | 0.507 | 0.58 | 0.327 | 0.23 | 0.298 | 0.27 | 0.326 | 0.248 | 0.775 | 0.732 | 0.629 | 0.374 | 1.25 | 1.2 | 1.07 | 1.13 |
| LK-2 | 0.196 | 0.178 | 0.165 | 0.216 | 0.196 | 0.306 | 0.267 | 0.256 | 0.259 | 0.243 | 0.98 | 0.828 | 0.772 | 0.549 | 0.423 | 0.54 | 0.324 | 0.236 |
| NCI-H2085 | 0.792 | 0.829 | 0.62 | 0.46 | 0.44 | 0.486 | 0.626 | 0.57 | 0.649 | 0.559 | 1.18 | 1.07 | 1.2 | 0.945 | 1.08 | 1.06 | 0.978 | 0.956 |
| NCI-H647 | 0.572 | 0.722 | 0.748 | 0.442 | 0.306 | 0.524 | 0.478 | 0.527 | 0.519 | 0.325 | 1.1 | 0.993 | 1.18 | 0.715 | 0.479 | 0.49 | 0.414 | 0.319 |
| NCI-H1793 | 0.253 | 0.301 | 0.251 | 0.177 | 0.233 | 0.445 | 0.514 | 0.457 | 0.602 | 0.407 | 0.358 | 0.52 | 0.482 | 0.31 | 0.558 | 0.408 | 0.32 | 0.252 |
| LC-2-ad | 0.834 | 0.981 | 0.747 | 0.72 | 0.625 | 0.881 | 0.788 | 0.92 | 0.835 | 0.618 | 0.463 | 0.434 | 0.464 | 0.257 | 0.886 | 0.901 | 0.771 | 0.691 |
| NCI-H3122 | 0.998 | 1.01 | 0.835 | 0.977 | 0.347 | 0.391 | 0.354 | 0.366 | 0.487 | 0.322 | 1.01 | 1.03 | 1.03 | 1.04 | 0.941 | 0.935 | 0.938 | 1 |
| LCLC-97TM1 | 0.525 | 0.519 | 0.485 | 0.507 | 0.353 | 0.286 | 0.236 | 0.241 | 0.333 | 0.236 | 0.533 | 0.528 | 0.314 | 0.355 | 0.302 | 0.313 | 0.204 | 0.304 |
| NCI-H1792 | 0.659 | 0.684 | 0.753 | 0.679 | 0.42 | 0.688 | 0.66 | 0.519 | 0.531 | 0.213 | 0.614 | 0.72 | 0.654 | 0.479 | 0.587 | 0.786 | 0.768 | 0.438 |
| NCI-H1755 | 0.797 | 0.738 | 0.797 | 0.622 | 0.558 | 0.693 | 0.71 | 0.714 | 0.722 | 0.628 | 1.02 | 0.976 | 0.934 | 0.856 | 0.459 | 0.575 | 0.463 | 0.378 |
| EPLC-272H | 0.311 | 0.305 | 0.289 | 0.247 | 0.328 | 0.329 | – | 0.386 | 0.382 | 0.376 | 1.15 | 1.15 | 1.25 | 0.969 | 0.188 | 0.224 | 0.364 | 0.252 |
